Data from US9024033B2, “Anti-malarial agents” (MMV Medicines for Malaria Venture, priority 2010, dated 2015).
Values after ≈ are worked out from the molar mass of the structure shown.

Assays:
Type in all cases: cell-based
P. falciparum (NF54) = experiment: Assay 1: anti-malarial in vitro efficacy, P. falciparum NF54; conditions: Plasmodium falciparum; strain NF54, assay 1
Description: (§1) The ability of aminopyridine derivatives according to the invention to kill P. falciparum parasites and/or to inhibit its proliferation was tested as follows:
(§2) Assay 1: The protocol used was as described in the supplemental material to Fiddock et al., 2004, Nature Reviews Drug Discovery, (3), p 509. […]

P. falciparum (K1) = experiment: Assay 1: anti-malarial in vitro efficacy, P. falciparum K1; conditions: Plasmodium falciparum; strain K1, assay 1
Description: as §1, §2

P. falciparum (3D7) = experiment: Assay 2: DAPI imaging assay of parasite replication, P. falciparum 3D7; conditions: Plasmodium falciparum, strain 3D7, 1.8 μM, 72 hours
Description: as §1
(§3) Assay 2: Compounds were incubated in the presence of 2 or 3% ring stage parasite (P. falciparum 3D7 or Dd2) and 0.3% hematocrite in a total assay volume of 50 μL, for 72 hours in a humidified atmosphere at 37° C., 5% O2 and 5% CO2, in Poly-D-lysine coated Cell Carrier Imaging plates (Perkin Elmer). After incubation plates were stained with DAPI (4′,6-diamidino-2-phenylindole, Invitrogen) in the presence of Saponin and Triton X-100 (Sigma-Aldrich) and incubated for a further 5 hours at RT in the dark before imaging on the OPERATM HTS confocal imaging system (Perkin Elmer). The digital images obtained were then analyzed using the PerkinElmer Acapella spot detection software where spots which fulfil the criteria established for a stained parasite are counted. The % inhibition of parasite replication was calculated using DMSO and 2 μM Artemisinin control data. Measured % inhibition and EC50 (ng/ml) are reported in Tables 5 & 6 below against different strains of P. falciparum K1, NF54 (assay 1) and 3D7, Dd2 (assay 2), respectively).

P. falciparum (Dd2) = experiment: Assay 2: DAPI imaging assay of parasite replication, P. falciparum Dd2; conditions: Plasmodium falciparum, strain Dd2, 1.8 μM, 72 hours
Description: as §1, §3

SMILES	EC50 (P. falciparum (NF54))	EC50 (P. falciparum (K1))	inhibition at 1.8 µM (P. falciparum (3D7))	inhibition at 1.8 µM (P. falciparum (Dd2))
Cc1ccc(-c2cc(-c3ccc(S(C)(=O)=O)cc3)cnc2N)cn1 [Compound 43, 3-(2-methylpyridin-5-yl)-5-[4-(methylsulfonyl)phenyl] pyridin-2-amine]	0.0094 µg/mL (≈ 0.0277 µM)	0.0098 µg/mL (≈ 0.0289 µM)	–	–
CS(=O)(=O)c1ccc(-c2cnc(N)c(-c3ccc(S(C)(=O)=O)cc3)c2)cc1 [Compound 17, 3,5-di-[4-(methylsulfonyl)phenyl]pyridin-2-amine]	0.031 µg/mL (≈ 0.077 µM)	0.032 µg/mL (≈ 0.0795 µM)	–	–
COc1cc(-c2cc(-c3ccc(S(C)(=O)=O)cc3)cnc2N)ccc1O [Compound 4, 4-[2-amino-5-(4-methylsulfonylphenyl)pyridin-3-yl]-2-methoxyphenol]	–	–	99%	96%
CS(=O)(=O)c1ccc(-c2cnc(N)c(-c3ccc(OC(F)(F)F)cc3)c2)cc1 [Compound 37, 5-[4-(methylsulfonyl)phenyl]-3-[4-(trifluoromethoxy)phenyl]pyridin-2-amine]	0.099 µg/mL (≈ 0.242 µM)	0.097 µg/mL (≈ 0.238 µM)	–	–
CS(=O)(=O)c1ccc(-c2cnc(N)c(-c3cccc(C(F)(F)F)c3)c2)cc1 [Compound 2, 5-(4-methylsulfonylphenyl)-3-[3-(trifluoromethyl)phenyl]pyridin-2-amine]	0.041 µg/mL (≈ 0.104 µM)	0.031 µg/mL (≈ 0.079 µM)	99%	96%
CS(=O)(=O)c1ccc(-c2cnc(N)c(-c3ccc(-n4cccn4)cc3)c2)cc1 [Compound 47, 3-[4-(1H-pyrazol-1-yl)phenyl]-5-[4-(methylsulfonyl)phenyl] pyridin-2-amine]	0.089 µg/mL (≈ 0.228 µM)	0.085 µg/mL (≈ 0.218 µM)	–	–
CN1CCN(c2ccc(-c3cc(-c4ccc(O)cc4)cnc3N)cc2)CC1 [Compound 9, 4-[6-amino-5-[4-(4-methylpiperazin-1-yl)phenyl]pyridin-3-yl]phenol]	–	–	76%	53%
CS(=O)(=O)c1ccc(-c2cnc(N)c(-c3ccc(C(F)(F)F)nc3)c2)cc1 [Compound 44, 3-[2-(trifluoromethyl)pyridin-5-yl]-5-[4-(methylsulfonyl)phenyl] pyridin-2-amine]	–	0.01 µg/mL (≈ 0.0254 µM)	–	–
Cc1cc(-c2cnc(N)c(-c3ccc(N4CCN(C)CC4)cc3)c2)cc(C)c1O [Compound 7, 4-[6-amino-5-[4-(4-methylpiperazin-1-yl)phenyl]pyridin-3-yl]-2,6-dimethylphenol]	–	–	93%	96%
CS(=O)(=O)c1ccc(-c2cnc(N)c(-c3ccc(O)cc3)c2)cc1 [Compound 5, 4-[2-amino-5-(4-methylsulfonylphenyl)pyridin-3-yl]phenol]	–	–	98%	98%
CS(=O)(=O)c1ccc(-c2cnc(N)c(-c3cccc(O)c3)c2)cc1 [Compound 3, 3-[2-amino-5-(4-methylsulfonylphenyl)pyridin-3-yl]phenol]	–	–	99%	94%
CN(C)CC(=O)Nc1ccc(-c2cc(-c3ccc(S(C)(=O)=O)cc3)cnc2N)cc1 [Compound 75, N-{4-[2-amino-5-(4-(methylsulfonyl)phenyl)pyridin-3-yl]phenyl}-2-(dimethylamino) acetamide]	0.088 µg/mL (≈ 0.207 µM)	0.11 µg/mL (≈ 0.259 µM)	–	–
CS(=O)(=O)c1ccc(-c2cnc(N)c(-c3ccc(CO)nc3)c2)cc1 [Compound 69, {5-[2-amino-5-(4-(methylsulfonyl)-phenyl)pyridin-3-yl]pyridin-2-yl}methanol]	0.061 µg/mL (≈ 0.172 µM)	0.06 µg/mL (≈ 0.169 µM)	–	–
CS(=O)(=O)c1ccc(-c2cnc(N)c(-c3ccc4ncccc4c3)c2)cc1 [Compound 59, 5-[4-(methylsulfonyl)phenyl]-3-(quinolin-6-yl) pyridin-2-amine]	0.107 µg/mL (≈ 0.285 µM)	0.098 µg/mL (≈ 0.261 µM)	–	–
Cc1ccc(-c2cc(-c3ccc(S(C)(=O)=O)cc3)cnc2N)cc1 [Compound 65, 5-[4-(methylsulfonyl)phenyl]-3-p-tolylpyridin-2-amine]	0.034 µg/mL (≈ 0.1 µM)	0.033 µg/mL (≈ 0.0975 µM)	–	–
CC(=O)Nc1ccc(-c2cc(-c3ccc(S(C)(=O)=O)cc3)cnc2N)cn1 [Compound 79, N-{5-[2-amino-5-(4-(methylsulfonyl)-phenyl)pyridin-3-yl]pyridin-2-yl}acetamide]	0.047 µg/mL (≈ 0.123 µM)	0.046 µg/mL (≈ 0.12 µM)	–	–

SMILES	EC50 (P. falciparum (NF54))	EC50 (P. falciparum (K1))	inhibition at 1.8 µM (P. falciparum (3D7))	inhibition at 1.8 µM (P. falciparum (Dd2))
CS(=O)(=O)c1ccc(-c2cnc(N)c(-c3cccc(OC(F)(F)F)c3)c2)cc1 [Compound 36, 5-[4-(methysulfonyl)phenyl]-3-[3-(trifluoromethoxy)phenyl] pyridin-2-amine]	0.078 µg/mL (≈ 0.191 µM)	0.074 µg/mL (≈ 0.181 µM)	–	–
CS(=O)(=O)c1ccc(-c2cnc(N)c(-c3ccc(C(N)=O)cc3)c2)cc1 [Compound 28, 4-{2-amino-5-[4-(methylsulfonyl)phenyl]pyridin-3-yl} benzamide]	0.01 µg/mL (≈ 0.0272 µM)	0.01 µg/mL (≈ 0.0272 µM)	–	–
CS(=O)(=O)c1ccc(-c2cnc(N)c(-c3ccc(C#N)cc3)c2)cc1 [Compound 25, 4-{2-amino-5-[4-(methylsulfonyl)-phenyl]pyridin-3-yl}benzonitrile]	0.056 µg/mL (≈ 0.16 µM)	0.051 µg/mL (≈ 0.146 µM)	–	–
COc1ccc(-c2cc(-c3ccc(CO)cc3)cnc2N)cn1 [Compound 8, [4-[6-amino-5-(6-methoxypyridin-3-yl)pyridin-3-yl]phenyl]methanol]	–	–	83%	–
COc1ccc(-c2cnc(N)c(-c3ccc(O)c(OC)c3)c2)cn1 [Compound 6, 4-[2-amino-5-(6-methoxypyridin-3-yl)pyridin-3-yl]-2-methoxyphenol]	–	–	98%	98%
CS(=O)(=O)c1ccc(-c2cnc(N)c(-c3cccc(C#N)c3)c2)cc1 [Compound 26, 3-{2-amino-5-[4-(methylsulfonyl)-phenyl]pyridin-3-yl}benzonitrile]	0.061 µg/mL (≈ 0.175 µM)	0.059 µg/mL (≈ 0.169 µM)	–	–
CS(=O)(=O)c1ccc(-c2cnc(N)c(-c3cnc(N)nc3)c2)cc1 [Compound 55, 5-{2-amino-5-[4-(methylsulfonyl)-phenyl]pyridin-3-yl}pyrimidin-2-amine]	0.04 µg/mL (≈ 0.117 µM)	0.041 µg/mL (≈ 0.12 µM)	–	–
CS(=O)(=O)c1ccc(-c2cnc(N)c(-c3ccc(C(F)(F)F)cc3)c2)cc1 [Compound 85, 3-[4-(trifluoromethyl)phenyl]-5-[4-(methylsulfonyl)phenyl]pyridin-2-amine]	0.0081 µg/mL (≈ 0.0206 µM)	0.0086 µg/mL (≈ 0.0219 µM)	–	–
CS(=O)(=O)c1ccc(-c2cnc(N)c(-c3ccnc(C(F)(F)F)c3)c2)cc1 [Compound 42, 3-[2-(trifluoromethyl)pyridin-4-yl]-5-[4-(methylsulfonyl)phenyl] pyridin-2-amine]	0.071 µg/mL (≈ 0.18 µM)	0.061 µg/mL (≈ 0.155 µM)	–	–
COc1ncc(-c2cc(-c3ccc(S(C)(=O)=O)cc3)cnc2N)cn1 [Compound 31, 3-(2-methoxypyrimidin-5-yl)-5-[4-(methylsulfonyl)phenyl]pyridin-2-amine]	0.093 µg/mL (≈ 0.261 µM)	0.098 µg/mL (≈ 0.275 µM)	–	–
CS(=O)(=O)c1ccc(-c2cnc(N)c(-c3ccc(S(C)(=O)=O)nc3)c2)cc1 [Compound 78, 5-[4-(methylsulfonyl)phenyl]-3-[2-(methylsulfonyl)-pyridin-5-yl]pyridin-2-amine]	0.094 µg/mL (≈ 0.233 µM)	0.11 µg/mL (≈ 0.273 µM)	–	–
CNC(=O)c1ccc(-c2cc(-c3ccc(S(C)(=O)=O)cc3)cnc2N)cc1 [Compound 29, 4-{2-amino-5-[4-(methylsulfonyl)-phenyl]pyridin-3-yl}-N-methyl benzamide]	0.03 µg/mL (≈ 0.0786 µM)	0.026 µg/mL (≈ 0.0682 µM)	–	–
COc1ccc(-c2cc(-c3ccc(S(C)(=O)=O)cc3)cnc2N)cn1 [Compound 1, 3-(6-Methoxypyridin-3-yl)-5-(4-methylsulfonylphenyl) pyridin-2-amine]	–	0.014 µg/mL (≈ 0.0394 µM)	–	–
NC(=O)c1ccc(-c2cnc(N)c(-c3ccc(C(N)=O)cc3)c2)cc1 [Compound 80, 4-[2-amino-3-(4-benzamido)pyridin-5-yl]benzamide]	0.025 µg/mL (≈ 0.0752 µM)	0.028 µg/mL (≈ 0.0842 µM)	–	–
NC(=O)c1ccc(-c2cc(-c3ccc(C(=O)N4CCOCC4)cc3)cnc2N)cc1 [Compound 71, {4-[2-amino-3-(4-carbamoyl phenyl)pyridin-5-yl]phenyl}-(morpholino) methanone]	0.0079 µg/mL (≈ 0.0196 µM)	0.0068 µg/mL (≈ 0.0169 µM)	–	–
